Results on one compound are retold here after patent US6426357B1, “Antagonists of follicle stimulating hormone activity” (Affymax, Inc., priority 1999, dated 2002).

As a reminder, the melting point is the temperature, or range, at which the solid turns liquid. The compound `NC(=O)CCN1C(=O)[C@@H](CC(=O)NCCc2ccc(Br)cc2)S[C@H]1c1ccc(C#Cc2ccccc2)s1` (relative stereo) [Example 13, 3-[(2S*,5R*)-5-{[2-(4-Bromo-phenyl)-ethylcarbamoyl]-methyl}-4-oxo-2-(5-phenylethynyl-thiophen-2-yl)-thiazolidin-3-yl]-propionamide] displayed a melting point of 241 to 243 °C.
